Measured values published in ChEMBL document CHEMBL1152114, “Synthesis of conformationally constrained potential inhibitors of mammalian metalloproteinases” (Bioorg Med Chem Lett, 1997).

Experiments:
[1] = test system: L1210; test: Compound was evaluated for the inhibitory activity against L1210 cell lines; assay type: functional, cell-based; conditions: Mus musculus
[2] = target: 72 kDa type IV collagenase (Homo sapiens, UniProt P08253); test: Inhibition of Gelatinase A, matrix metalloprotease-2
[3] = target: Matrix metalloproteinase-9 (Homo sapiens, UniProt P14780); test: Inhibition of Gelatinase B, matrix metalloprotease-9
Chain of Matrix metalloproteinase-9 (P14780 whole entry): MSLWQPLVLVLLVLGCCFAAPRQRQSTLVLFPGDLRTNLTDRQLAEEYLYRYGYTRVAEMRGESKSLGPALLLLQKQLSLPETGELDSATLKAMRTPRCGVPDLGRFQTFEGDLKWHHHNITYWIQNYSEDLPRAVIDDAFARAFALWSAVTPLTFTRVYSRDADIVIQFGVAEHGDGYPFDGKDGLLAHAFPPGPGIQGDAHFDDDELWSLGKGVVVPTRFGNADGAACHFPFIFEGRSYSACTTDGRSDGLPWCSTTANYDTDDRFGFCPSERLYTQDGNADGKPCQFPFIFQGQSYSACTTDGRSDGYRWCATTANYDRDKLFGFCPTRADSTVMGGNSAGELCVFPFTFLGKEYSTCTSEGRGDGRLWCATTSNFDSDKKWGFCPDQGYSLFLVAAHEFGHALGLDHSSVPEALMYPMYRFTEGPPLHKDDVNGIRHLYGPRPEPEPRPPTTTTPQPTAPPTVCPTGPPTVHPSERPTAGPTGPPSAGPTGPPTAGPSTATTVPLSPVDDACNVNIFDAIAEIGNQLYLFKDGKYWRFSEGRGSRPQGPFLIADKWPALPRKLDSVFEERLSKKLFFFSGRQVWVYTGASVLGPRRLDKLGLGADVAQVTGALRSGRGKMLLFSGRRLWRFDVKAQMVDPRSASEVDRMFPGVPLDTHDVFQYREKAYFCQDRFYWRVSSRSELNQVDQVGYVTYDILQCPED

Chain of 72 kDa type IV collagenase (P08253 whole entry): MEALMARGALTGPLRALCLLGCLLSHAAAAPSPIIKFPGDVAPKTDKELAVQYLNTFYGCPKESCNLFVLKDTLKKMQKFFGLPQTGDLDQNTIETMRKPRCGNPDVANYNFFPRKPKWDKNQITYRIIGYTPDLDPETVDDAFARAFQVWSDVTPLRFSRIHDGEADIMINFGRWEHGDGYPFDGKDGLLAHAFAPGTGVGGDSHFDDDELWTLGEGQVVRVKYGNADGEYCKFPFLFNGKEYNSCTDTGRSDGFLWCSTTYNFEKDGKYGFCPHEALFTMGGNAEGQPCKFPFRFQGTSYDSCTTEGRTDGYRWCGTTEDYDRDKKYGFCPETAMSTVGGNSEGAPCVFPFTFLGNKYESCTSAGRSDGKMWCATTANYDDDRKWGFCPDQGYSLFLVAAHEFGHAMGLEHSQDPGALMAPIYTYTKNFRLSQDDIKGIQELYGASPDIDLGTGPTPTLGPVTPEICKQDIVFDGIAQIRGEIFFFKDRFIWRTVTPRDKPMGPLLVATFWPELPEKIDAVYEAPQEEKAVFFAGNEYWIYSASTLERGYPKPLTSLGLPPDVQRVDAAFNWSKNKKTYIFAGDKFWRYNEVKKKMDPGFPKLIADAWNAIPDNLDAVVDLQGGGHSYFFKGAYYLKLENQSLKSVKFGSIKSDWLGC

IC50 [1]: > 1000 µM | IC50 [2]: 32 µM | IC50 [3]: 36 µM
Compound: CNC(=O)[C@H](Cc1ccccc1)NC(=O)[C@H]1[C@@H](COCC(=O)NO)[C@@H]1CSc1ccccc1
